Experimental data published in patent US20050075312A1, “Antitumor inhibitors and use thereof” (priority 2003, published 2005).
Several values for one entry are separate records, joined by “and”; a condition that tells them apart may be missing. Equal values may be shown once.

Tests used:
[1] = system: sarcoma 180 ascitic tumor; assay: survival time of mice with sarcoma 180 ascitic tumor; format: in vivo
sarcoma 180 = assay: solid tumor induced by sarcoma 180 tumor cells; format: in vivo, ICR mice; conditions: for tumor weight: control 7.1±0.1; for tumor weight / tumor volume: mean±S.E.M.; for tumor volume: control 8804±465.3
Procedure: For solid tumor development, ICR mice were injected with 0.1 ml of sarcoma 180 suspensions into the right hind limbs. After 6 days of tumor transplantation, mice randomized into six groups were injected i.p. with AS (50 and 100 mg/kg) and 5-FU (25 mg/kg) once a day for 9 days. Eight days later after treatment, animals were sacrificed by cervical […], and solid tumors were removed and weighed.

[2] = system: Lewis lung carcinoma cells; assay: tumor growth in Lewis lung carcinoma-bearing mice; format: in vivo, C57BL/6 mice; conditions: for tumor growth inhibited (volume): vs saline
[3] = system: chick embryonic angiogenesis; assay: chorioallantoic membrane (CAM) assay; format: in vivo, chicken; conditions: for Eggs showing antiangiogenesis: avascular zone exceeded 3 mm
Procedure: The effect of acharan sulfate on the inhibition of angiogenesis was performed using the choroioallantoic membrane (CAM) assay. These assays essentially followed previously published procedures (Tanaka et al, 1986; Oikawa et al., 1990). In brief, fertilized chicken eggs were incubated in the constant humidified breeder at 37° C. On the third day of incubation, about 2 ml of egg albumin were aspirated by an 18-gauge hypodermic needle, to detach the developing CAM from the shell. One and half days later, sample-loaded thermanox coverslips (Nunc, Naperville, Ill.) were air-dried and applied to the CAM surface for testing of angiogenesis inhibition by AS. Two days later, 1 ml of 10% fat emulsion (Intralipose) was injected into the chorioallantoic membrane and the avascular zone was observed under a dissecting microscope. Inhibition of angiogenesis was assessed when the avascular zone exceeded 3 mm. In order to abolish the possibility of contaminant in AS, the depolymerized product by heparinase II as described above was also tested for the antiangiogenic activity. The concentration of AS used in this assay was selected based on the concentration of heparin that had previously been applied in the same assay (Collen et al., 2000).
On day 4.5, CAMs were treated with different doses of AS for 2 days. The dose-response relationship for the appearance of avascular zone was determined.

[4] = system: calf pulmonary artery endothelial (CPAE) cells; assay: CPAE cell proliferation by MTT assay; format: cell-based; conditions: for growth inhibition: 3-day treatment
Procedure: The effect of acharan sulfate on in vitro cell proliferation was carried out using calf pulmonary artery endothelial (CPAE) cells as follows.
CPAE cells were seeded in a 24 well plate at a cell density of 10^5 cells/well in 90% RPMI and 10% FBS. After 24 h incubation, the cells were treated with various concentrations of AS. Three days later, new media and MTT solution were added to each well. After incubation at 37° C. for 4 h, the absorbance of treated cells at 540 nm was compared to that of control cells.

[5] = system: bFGF-induced angiogenesis; assay: mouse matrigel plug assay; format: in vivo, C57BL/6J mice
Procedure: The effect of acharan sulfate on the inhibition of angiogenesis was also evaluated in the matrigel plug assay. This assay was performed as previously described (Passaniti et al., 1992). Acharan sulfate, dissolved in water, bFGF and heparin, dissolved in 0.1% bovine serum albumen (BSA)/phosphate buffered saline (PBS) were mixed with liquid matrigel (Collaborative Biomedical Products, Bedford, Mass.) in proportions not exceeding 1% of the total volume of matrigel. A mixture of 0.5 ml matrigel with AS or vehicle was injected subcutaneously into C57BL/6J mice. After injection, the matrigel rapidly formed a plug. […] The amount of hemoglobin (Hb) inside the matrigel was measured using the Drabkin method (Drabkin and Austin, 1932) and Drabkin reagent 525 for the quantitation of blood vessel formation. The concentration of Hb was calculated based on a Hb standard measured simultaneously.
To evaluate the effect of AS on ongoing angiogenic process in the mouse matrigel plug assay matrigel, heparin (10 units/500 μl), and bFGF (100 ng/500 μl) with or without AS were injected s.c. into C57BL/6 mice. […] We next measured the hemoglobin content inside the matrigel plugs to quantify the angiogenesis. Whereas bFGF and heparin increased Hb concentration to 11.8 g/dl and the Hb concentration inside the control was 0.3 g/dl, AS decreased the heparin and bFGF-elevated Hb quantity to about 8.6 g/dl (FIG. 3). […]

matrix metalloprotease = assay: antiprotease activity; format: biochemical
bFGF = bFGF (Homo sapiens, UniProt P09038); conditions: in vitro (Wang et al., 1997); cited from earlier work
[6] = system: Lewis lung carcinoma cells; assay: tumor growth in Lewis lung carcinoma-bearing mice; format: in vivo, C57BL/6 mice; conditions: for tumor volume: saline 4534.4; for mean tumor weight reduction: day 21, vs saline; for tumor weight: day 21, saline 4.5±0.7
Procedure: Male C57BL/6 mice were inoculated s.c. in the back with LLC cells (1×10^6/animal) on day 0. After tumor volume was at least 60-100 mm^3, AS was administered into the subcutaneous region near the tumor mass at two doses of 10 and 30 mg/kg for 15 days. The size of tumors in all groups was measured using a dial-caliper and the volume of tumors was determined using the formula width^2×length×0.52 (Voest et al., 1995; Cao et al., 1995). The effects of AS on tumor growth and host survival were also measured by evaluating tumor volumes, tumor weights and percentage increase in lifespan of tumor hosts, respectively (Oguchi et al., 1987; Kusumoto, 1991). For calculating the survival time, mice were inoculated i.p. with […] sarcoma 180 cells/mouse on day 0 and the treatment with two doses of AS (50 and 100 mg/kg, i.p.) were started 24 h after inoculation for nine consecutive days. The control group was treated with saline. Median survival time (MST) for each group (n=7) was observed and the antitumor activity of the test compounds were compared with that of control group by measuring the increase in lifespan.

[7] = 50 mg/kg i.p. once a day for 9 days, vs control
[8] = 50 mg/kg i.p. once a day for 9 days
[9] = 10 mg/kg daily s.c., end of 15-day treatment

bFGF, sequence (P09038 143-288, species assumed): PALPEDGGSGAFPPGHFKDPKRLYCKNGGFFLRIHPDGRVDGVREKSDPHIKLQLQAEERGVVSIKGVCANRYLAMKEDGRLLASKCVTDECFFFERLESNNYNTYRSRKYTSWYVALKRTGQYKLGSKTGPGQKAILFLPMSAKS

O=c1[nH]cc(F)c(=O)[nH]1 [5-FU, 5-fluorouracil]
median survival time (MST) ([1]; 25 mg/kg, control 22.4±2.2): 42.8 ± 4.2 days | tumor weight inhibited (sarcoma 180; 25 mg/kg i.p. once a day for 9 days, vs control): 75.1% and 55.8% | tumor weight (sarcoma 180; 25 mg/kg i.p. once a day for 9 days): 1.8 ± 0.3 g and 3.1 ± 0.3 g | tumor volume decreased (sarcoma 180; 5-FU 25 mg/kg i.p. once a day for 9 days, vs control): 82.1% | tumor volume (sarcoma 180; 5-FU 25 mg/kg i.p. once a day for 9 days): 1572±201.5 mm^3

COc1cccc2c1C(=O)c1c(O)c3c(c(O)c1C2=O)C[C@@](O)(C(=O)CO)C[C@@H]3O[C@H]1C[C@H](N)[C@H](O)[C@H](C)O1 [Doxorubicin]
loss of weight of treated mice ([2]; 10 mg/kg i.v. every five day, compared with control mice): marked | tumor weight reduction ([2]; 10 mg/kg i.v. every five day, day 21, vs saline): 68.0% | tumor weight ([2]; 10 mg/kg i.v. every five day, day 21, saline 4.5±0.7): 1.6 ± 0.2 g | injection area ([2]; 10 mg/kg i.v. every five day, over the treatment): significantly damaged | tumor growth inhibited (volume) ([2]; 10 mg/kg i.v. every five day): 62.0% | tumor volume ([2]; 10 mg/kg i.v. every five day, saline 4534.4): 1721.6 mm^3

CC1=C(/C=C/C(C)=C/C=C/C(C)=C/C(=O)O)C(C)(C)CCC1 [Retinoic acid, all-trans-retinoic acid, reference compound]
% inhibition ([3]; 1 μg/egg): 80% | Eggs showing antiangiogenesis ([3]; 1 μg/egg, 25 eggs tested): 20

Acharan sulfate [AS]
growth inhibition ([4]; 1 μg/ml): 15.2% | growth inhibition ([4]; 10 μg/ml): 24.9% | cytotoxic effect on CPAE cell viability ([4]; increasing concentrations, data not shown): no cytotoxic effect | vessel induction in matrigel ([5]; fifty micrograms of AS in combination with bFGF and heparin): slightly prevented the vessel induction | Hb concentration inside the matrigel plug ([5]; fifty micrograms of AS with bFGF and heparin, s.c., seven days, bFGF and heparin alone 11.8, control 0.3): about 8.6 g/dl | lifespan increased against the control group ([1]; 30 mg/kg/day for 9 consecutive days): 1.5 fold | median survival time ([1]; 30 mg/kg/day for 9 consecutive days, control 22.4±2.2): 34.3 ± 2.6 days | lifespan prolonged against the control group ([1]; 50 mg/kg/day for 9 consecutive days): 1.8 fold | median survival time ([1]; 50 mg/kg/day for 9 consecutive days, control 22.4±2.2): 40.6 ± 3.1 days | tumor volume inhibited (sarcoma 180; [7]): 45.0% | tumor weight inhibited (sarcoma 180; [7]): 39.6% | tumor weight (sarcoma 180; [8]): 4.3 ± 0.1 g | tumor volume (sarcoma 180; [8]): 4799±345.2 mm^3 | tumor growth inhibited (volume) [2, 9]: 32.8% | % inhibition ([3]; 5 μg/egg): 48.3% | Eggs showing antiangiogenesis ([3]; 5 μg/egg, 29 eggs tested): 14 | % inhibition ([3]; 10 μg/egg): 55.6% | Eggs showing antiangiogenesis ([3]; 10 μg/egg, 27 eggs tested): 15 | antiprotease activity (matrix metalloprotease): no detectable antiprotease activity | effect on heparin's bFGF mitogenicity (bFGF): interfered with heparin's bFGF mitogenicity in vitro | tumor volume [6, 9]: 3049.2 mm^3 | mean tumor weight reduction ([6]; 10 mg/kg s.c.): 37.8% | tumor weight ([6]; 10 mg/kg s.c.): 2.8 ± 0.2 g | tumor growth inhibited (volume) ([6]; 30 mg/kg daily s.c., end of 15-day treatment, vs saline): 38.1% | tumor volume ([6]; 30 mg/kg daily s.c., end of 15-day treatment): 2809.3 mm^3 | mean tumor weight reduction ([6]; 30 mg/kg s.c.): 48.9% | tumor weight ([6]; 30 mg/kg s.c.): 2.3 ± 0.2 g | body weight of mice over the course of treatment ([6]; 10 and 30 mg/kg s.c., 15 days): did not lose weight
